Paper PMC8190080, “Tanshinones induce tumor cell apoptosis via directly targeting FHIT” (Scientific Reports, 2021)

Assays:
FHIT truncation TR3 = molecular target: T1, FHIT truncation TR3 (Homo sapiens, UniProt P49789); test: Cellular MST assay, GFP tagged FHIT truncation TR3 (C-terminal only); type: binding
T1 construct: expressed in transfected cells; host or cells: HEK293T / 293 cells (inferred from the cellular MST method)
Procedure: (§1) Ten million 293 cells overexpressing GFP-tagged FHIT or free GFP were lysed in 0.5 mL M-PER mammalian protein extraction reagent (Thermo Fisher Scientific). Cell lysates were diluted in PBS buffer to a final concentration at which the fluorescent signals of the GFP proteins were suitable for the detection of the Monolith NT.115 instrument (NanoTemper Technologies). A single point screening assay was developed against GFP-FHIT protein to find potential binding molecules from compound libraries (L1021,APExBIO). For binding affinity detection, a 10µL protein sample was mixed with 10µL ligand at various concentrations as indicated. And the purified proteins were labeled by Red- NHS kit in accordance with the manufacturer’s protocol (MO-L011, NanoTemper Technologies). Then the mixture solutions were loaded into NT.115 standard coated capillaries or premium coated capillaries (NanoTemper Technologies), and the MST measurements were performed at 25 °C. The fluorescence signal during the thermophoresis was monitored and the change in fluorescence was analyzed by software. The Kd was calculated by fitting a standard binding curve to the series diluted ligands. And data were analyzed by GraphPad Prism 7.0.

FHIT truncation TR2 = FHIT truncation TR2 (Homo sapiens, UniProt P49789); test: Cellular MST assay, GFP tagged FHIT truncation TR2; type: binding
FHIT truncation TR2, sequence (P49789 whole entry, the tested form may be a part): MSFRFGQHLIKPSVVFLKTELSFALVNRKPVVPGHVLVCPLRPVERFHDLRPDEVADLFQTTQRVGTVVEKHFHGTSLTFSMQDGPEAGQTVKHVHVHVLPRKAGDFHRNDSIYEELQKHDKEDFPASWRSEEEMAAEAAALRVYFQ
Procedure: as §1

FHIT [1] = molecular target: T2, FHIT (Homo sapiens, UniProt P49789); test: FHIT hydrolase activity detection assay (Ap3A, ADP-Glo); type: biochemical; conditions: 5 nM FHIT, 500 nM Ap3A, ADP production by ADP-Glo
T2 construct: GST (N, cleaved yes); made in house; host or cells: E. coli BL21 (DE3)
T2 sequence (P49789 whole entry): as the sequence (P49789 whole entry, the tested form may be a part) above
Procedure: 5 nM FHIT protein was mixed with series diluted compounds as indicated in assay buffer (20 mM Tris–HCl, 2 mM DTT, 5 mM MgCl2, pH7.5) in a final DMSO concentration of 1% in a total volume of 20 μL. The mixtures were incubated for 30 min at 25 °C, then 500 nM Ap3A was added. After incubation at 25 °C for 5 min, the production of ADP in the reaction system was detected by ADP-Glo reagent (V6930, Promega) according to the manufacturer’s protocol in 384-well. Luminescence was read by spark (TECAN), an integration time of 1 s per well. And the data were analyzed by GraphPad Prism 7.0.

FHIT (H96N) = molecular target: T3, FHIT (H96N) (Homo sapiens, UniProt P49789, H96N); test: Fluorescence polarization assay, FHIT H96N-ApppBODIPY binding inhibition; conditions: 5 µM FHIT (H96N), 1 µM ApppBODIPY
T3 construct: GST (N, cleaved yes); made in house; host or cells: E. coli BL21 (DE3)
T3 sequence (P49789 whole entry H96N): as the sequence (P49789 whole entry, the tested form may be a part) above, with H96N counted along it
Procedure: The binding of FHIT (H96N) to fluorescein-labeled substrates ApppBODIPY was analyzed by fluorescence polarization assay in 384-well format for dose–response curve studies using spark instrument (TECAN) according to the protocol reported before. And 5 µM FHIT (H96N) protein was incubated with 1 µM fluorescein-labeled substrates in buffer A (25 mM Tris–HCl, pH 7.5, 5 mM MgCl2 and 2 mM DTT) with series diluted inhibitors as indicated. Each sample was allowed to equilibrate in the solution for 30 min. After 30 min, the steady-state fluorescence anisotropy (mP) was measured. A second reading was taken after 10 min, to ensure that the mixture was well-equilibrated and stable. Less than 5% change was observed between 30 and 40 min measurements. The IC50 value was determined by fitting the binding curves using GraphPad Prism 7.0.

HINT1 = molecular target: T4, HINT1 (Homo sapiens, UniProt P49773); test: MST assay, purified HINT1; type: binding
T4 construct: 6xHis (N); made in house; host or cells: E. coli BL21(DE3)
T4 sequence (P49773 whole entry): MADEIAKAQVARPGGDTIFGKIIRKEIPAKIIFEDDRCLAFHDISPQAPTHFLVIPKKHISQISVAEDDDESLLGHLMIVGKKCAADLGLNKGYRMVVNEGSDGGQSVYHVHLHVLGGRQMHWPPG

HCT116 cells [2] = test: CCK-8 assay for cell inhibitory rate; type: cell-based, human; conditions: WT HCT116 cells, concentration as high as 100 µM
Procedure: The CCK-8 (Cell-Counting Kit-8) assay was used to detect the cells’inhibitory rate following the manufacturer’s protocol (APExBIO). Cells were seeded into 96-well plates at the density of 4 × 10^3(cells/well) overnight at 37 °C. After that, the culture medium was removed and the cells were treated with different concentrations of TSA (0, 1, 2, 5, 10 µM) or STS (0, 10, 25, 50, 100 µM) for 24 h, 48 h, 72 h respectively. Then 10 μL CCK-8 reagent was added into each well and incubated for another 2 h, OD450 was measured by a microplate reader (spark, TECAN).

FHIT [3] = molecular target: T2, FHIT; test: Cellular MST assay, HEK293T cell lysate containing GFP tagged FHIT; type: binding; conditions: GFP-FHIT in HEK293T cell lysate, 25 °C
Procedure: as §1

GALT = molecular target: T5, GALT (Homo sapiens, UniProt P07902); test: MST assay, purified GALT; type: binding
T5 construct: 6xHis (N); made in house; host or cells: E. coli BL21(DE3)
T5 sequence (P07902 whole entry): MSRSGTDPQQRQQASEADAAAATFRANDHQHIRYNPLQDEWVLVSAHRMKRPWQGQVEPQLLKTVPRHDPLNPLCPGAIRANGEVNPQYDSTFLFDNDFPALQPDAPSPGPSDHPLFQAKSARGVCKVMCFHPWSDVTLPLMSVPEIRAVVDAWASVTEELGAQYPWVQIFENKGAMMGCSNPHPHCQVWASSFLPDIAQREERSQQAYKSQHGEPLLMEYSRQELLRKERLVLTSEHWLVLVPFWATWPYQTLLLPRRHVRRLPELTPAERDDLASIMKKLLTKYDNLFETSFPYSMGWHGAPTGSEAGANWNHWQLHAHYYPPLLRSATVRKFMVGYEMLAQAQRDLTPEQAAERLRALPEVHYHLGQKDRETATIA

HCT116 cells [4] = test: Colony formation assay; type: cell-based, human; conditions: up to 10 µM, 14 days
Procedure: ENPP1 hydrolase activity detection assay
ENPP1 protein (4ng/µl) was mixed with series diluted compounds as indicated in assay buffer (50mM Tris-HCl, 2mM CaCl2, 2mM MgCl2, pH9.0) in a final DMSO concentration of 1% in a total volume of 20μL. The mixtures were incubated for 30min at 25°C, then 4µM Ap3A was added. After incubation at 25°C for 10min, ENPP1 should be inactivated at 85°C for 5min.
Then the production of ADP in the reaction system was detected by ADP-Glo reagent (V6930, Promega) according to the manufacturer’s protocol in 384-well. Luminescence was read by spark (TECAN), an integration time of 1 second per well. And the data were analyzed by […]
Fluorescent thin layer enzyme assay for ENPP1
Small molecules, when indicated at series concentrations, were mixed with 2.5µM the fluorescent substrate ApppBODIPY. Then, 10nM purified ENPP1 protein was added to the reaction system at 25°C containing 50mM Tris-HCl pH9.0, 2mM CaCl2, 2mM MgCl2. Reaction samples (0.6µL) were spotted on silica TLC plates (Merck) at 60–120s intervals. Plates were air-dried and developed in 2-propanol:NH4OH:1,4-dioxane: H2O (50:35:8:7) as reported before. Developed plates were imaged by fluorescein blot (ChemiDoc, Bio-rad).
Colony formation assay was performed as described before. Briefly, ~200/well single cells were planted into 6-well plate. […]

T1 sequence (P49789 109-147 limits assumed): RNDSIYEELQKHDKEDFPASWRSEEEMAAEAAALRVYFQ

For `Cc1c(S(=O)(=O)O)oc2c1C(=O)C(=O)c1c-2ccc2c1CCCC2(C)C` [STS, Sodium tanshinone IIA sulfonate], the Kd (FHIT truncation TR3) was “No Kd value was calculated”, the Kd (FHIT truncation TR2) was 58.2 µM and the IC50 (FHIT [1]) was 0.34 ± 0.09 µM. For the same compound, the IC50 (FHIT (H96N)) was 2.2 ± 0.05 µM, the “direct binding (MST binding curve)” value (HINT1) was “no direct binding curve was observed” and the “cytotoxicity (CCK8)” value (HCT116 cells [2]) was “no cytotoxicity”. For the same compound, the Kd (FHIT [3]) was 0.268 ± 0.0426 µM, the Kd (GALT) was 12.9 ± 0.54 µM and the “colony formation of HCT116 cells” value (HCT116 cells [4]) was “no effect was detected”.
